Results reported in US20260285850A1, “SUBSTITUTED OXAZOLIDINONES AND IMIDAZOLINONES AS HERBICIDES” (FMC CORPORATION, priority 2023, published 2026).

Experiments:
Format in all cases: in vivo
[1] = tested on: ducksalad (Heteranthera limosa); assay: Test B flooded paddy test, visual plant response rating 0-100; conditions: 250 g ai/ha, Flood, applied to paddy water, evaluated after 13 days
Summary of the method: (§1)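 Visual evaluation after 13 days. Water-applied treatment, 3 cm flood depth held constant, plants at 2-leaf stage at treatment.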

[2] = tested on: sedge, umbrella (small-flower umbrella sedge, Cyperus difformis); assay: as above; conditions: 250 g ai/ha, Flood, applied to paddy water, evaluated after 13 days
Summary of the method: as §1

[3] = tested on: rice (Oryza sativa); assay: as above; conditions: 250 g ai/ha, Flood, applied to paddy water, evaluated after 13 days
Summary of the method: as §1

[4] = tested on: barnyardgrass (Echinochloa crusgalli); assay: as above; conditions: 250 g ai/ha, Flood, applied to paddy water, evaluated after 13 days
Summary of the method: as §1

[5] = tested on: soybean (Glycine max); assay: Test A preemergence soil spray, visual injury rating 0-100; conditions: 10 days
Summary of the method: (§2)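 Preemergence directed soil spray or postemergence spray (2-10 cm, 1-2 leaf); loam/sand mix; compound in non-phytotoxic solvent + surfactant. Greenhouse, 10 d. Visual injury vs untreated, 0 = none, 100 = complete control.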

[6] = tested on: barnyardgrass (Echinochloa crus-galli); assay: as above; conditions: 10 days
Summary of the method: as §2

[7] = tested on: oat, wild (wild oat, Avena fatua); assay: as above; conditions: 10 days
Summary of the method: as §2

[8] = tested on: green foxtail (Setaria viridis); assay: as above; conditions: 10 days
Summary of the method: as §2

[9] = tested on: palmer (palmer amaranth, palmer pigweed, Amaranthus palmeri); assay: as above; conditions: 10 days
Summary of the method: as §2

[10] = tested on: ryegrass, Italian (italian ryegrass, Lolium multiflorum); assay: as above; conditions: 10 days
Summary of the method: as §2

[11] = tested on: wheat (Triticum aestivum); assay: as above; conditions: 10 days
Summary of the method: as §2

[12] = tested on: kochia (Bassia scoparia); assay: as above; conditions: 10 days
Summary of the method: as §2

[13] = tested on: corn (Zea mays); assay: as above; conditions: 10 days
Summary of the method: as §2

[14] = tested on: ragweed (common ragweed, Ambrosia artemisiifolia); assay: as above; conditions: 10 days
Summary of the method: as §2

[15] = tested on: blackgrass (Alopecurus myosuroides); assay: as above; conditions: 10 days
Summary of the method: as §2

[16] = tested on: soybean (Glycine max); assay: Test A postemergence application, visual injury rating 0-100
Summary of the method: as §2

[17] = tested on: barnyardgrass (Echinochloa crus-galli); assay: as above
Summary of the method: as §2

[18] = tested on: oat, wild (wild oat, Avena fatua); assay: as above
Summary of the method: as §2

[19] = tested on: green foxtail (Setaria viridis); assay: as above
Summary of the method: as §2

[20] = tested on: palmer (palmer amaranth, palmer pigweed, Amaranthus palmeri); assay: as above
Summary of the method: as §2

[21] = tested on: ryegrass, Italian (italian ryegrass, Lolium multiflorum); assay: as above
Summary of the method: as §2

[22] = tested on: wheat (Triticum aestivum); assay: as above
Summary of the method: as §2

[23] = tested on: galium (catchweed bedstraw, Galium aparine); assay: as above; conditions: Postemergence, 16 g ai/ha, greenhouse 10 days; 0 no effect, 100 complete control
Summary of the method: as §2

[24] = tested on: kochia (Bassia scoparia); assay: as above
Summary of the method: as §2

[25] = tested on: horseweed (Erigeron canadensis); assay: as above
Summary of the method: as §2

[26] = tested on: corn (Zea mays); assay: as above
Summary of the method: as §2

[27] = tested on: ragweed (common ragweed, Ambrosia artemisiifolia); assay: as above
Summary of the method: as §2

[28] = tested on: blackgrass (Alopecurus myosuroides); assay: as above
Summary of the method: as §2

[29] = 62 g ai/ha, 0 = no effect, 100 = complete control
[30] = 62 g ai/ha, postemergence, 10 days, 0 = no effect, 100 = complete control
[31] = Postemergence, 16 g ai/ha, greenhouse 10 days, 0 no effect, 100 complete control

With CC1(C(=O)NC2CC=C(C(=O)OCC(F)F)C2)CN(c2cc(F)cc(F)c2)C(=O)O1 (stereo not drawn) [Compound 152] the “Plant response rating, Ducksalad (0 to 100 scale, 0 is no effect and 100 is complete control)” value [1] was 80, the “Plant response rating, Sedge, Umbrella (0 to 100 scale, 0 is no effect and 100 is complete control)” value [2] was 90 and the “Plant response rating, Rice (0 to 100 scale, 0 is no effect and 100 is complete control)” value [3] was 85. The “Plant response rating, Barnyardgrass (0 to 100 scale, 0 is no effect and 100 is complete control)” value [4] was 90, the “Soybean plant response rating” value ([5]; 16 g ai/ha, 0 to 100 scale) was 0 and the “Soybean plant response rating (0-100)” value [5, 29] was 60. For the same compound, the “Barnyardgrass plant response rating” value ([6]; 16 g ai/ha, 0 to 100 scale) was 30, the “Barnyardgrass plant response rating (0-100)” value [6, 29] was 100 and the “Oat, Wild plant response rating” value ([7]; 16 g ai/ha, 0 to 100 scale) was 0. The “Oat, Wild plant response rating (0-100)” value [7, 29] was 70, the “Foxtail, Green plant response rating” value ([8]; 16 g ai/ha, 0 to 100 scale) was 30 and the “Foxtail, Green plant response rating (0-100)” value [8, 29] was 100. For the same compound, the “Pigweed, Palmer plant response rating” value ([9]; 16 g ai/ha, 0 to 100 scale) was 0, the “Pigweed, Palmer plant response rating (0-100)” value [9, 29] was 90 and the “Ryegrass, Italian plant response rating” value ([10]; 16 g ai/ha, 0 to 100 scale) was 70. The “Ryegrass, Italian plant response rating (0-100)” value [10, 29] was 90, the “Wheat plant response rating” value ([11]; 16 g ai/ha, 0 to 100 scale) was 70 and the “Wheat plant response rating (0-100)” value [11, 29] was 90. The “Kochia plant response rating” value ([12]; 16 g ai/ha, 0 to 100 scale) was 90, the “Kochia plant response rating (0-100)” value [12, 29] was 90 and the “Corn plant response rating” value ([13]; 16 g ai/ha, 0 to 100 scale) was 10. The “Corn plant response rating (0-100)” value [13, 29] was 60, the “Ragweed plant response rating” value ([14]; 16 g ai/ha, 0 to 100 scale) was 0 and the “Ragweed plant response rating (0-100)” value [14, 29] was 30. For the same compound, the “Blackgrass plant response rating” value ([15]; 16 g ai/ha, 0 to 100 scale) was 0, the “Blackgrass plant response rating (0-100)” value [15, 29] was 0 and the “Soybean plant response rating (0-100)” value [16, 30] was 80. The “Soybean plant response rating (0 to 100 scale)” value [16, 31] was 60, the “Barnyardgrass plant response rating (0-100)” value [17, 30] was 100 and the “Barnyardgrass plant response rating (0 to 100 scale)” value [17, 31] was 100. For the same compound, the “Oat, Wild plant response rating (0-100)” value [18, 30] was 90, the “Oat, Wild plant response rating (0 to 100 scale)” value [18, 31] was 80 and the “Foxtail, Green plant response rating (0-100)” value [19, 30] was 90. For the same compound, the “Foxtail, Green plant response rating (0 to 100 scale)” value [19, 31] was 90, the “Pigweed, Palmer plant response rating (0-100)” value [20, 30] was 90 and the “Pigweed, Palmer plant response rating (0 to 100 scale)” value [20, 31] was 60. The “Ryegrass, Italian plant response rating (0-100)” value [21, 30] was 80, the “Ryegrass, Italian plant response rating (0 to 100 scale)” value [21, 31] was 70 and the “Wheat plant response rating (0-100)” value [22, 30] was 90. The “Wheat plant response rating (0 to 100 scale)” value [22, 31] was 80, the “Galium plant response rating (0 to 100 scale)” value [23] was 70 and the “Kochia plant response rating (0-100)” value [24, 30] was 90. For the same compound, the “Kochia plant response rating (0 to 100 scale)” value [24, 31] was 90, the “Horseweed plant response rating (0-100)” value [25, 30] was 70 and the “Horseweed plant response rating (0 to 100 scale)” value [25, 31] was 30. The “Corn plant response rating (0-100)” value [26, 30] was 100, the “Corn plant response rating (0 to 100 scale)” value [26, 31] was 100 and the “Ragweed plant response rating (0-100)” value [27, 30] was 50. The “Ragweed plant response rating (0 to 100 scale)” value [27, 31] was 20, the “Blackgrass plant response rating (0-100)” value [28, 30] was 100 and the “Blackgrass plant response rating (0 to 100 scale)” value [28, 31] was 70.
